The record followed here is patent US9056067B2, “Pharmaceutical composition for enhancing immunity, and extract of Poria” (Sinphar Pharmaceutical Co., Ltd., priority 2003, dated 2015).

Each structure is given as a SMILES string.

For one assay, the system named is IgM. Briefly: IgM secretion by spleen cells in vitro (LPS, ELISA) after oral administration. The assay is classed as in vivo, mice. Particulars: for Dose with significant increase in IgM secretion by spleen cells: oral, after three days of in vitro culture. Here is the method: […] […] The control group was the mice feeding with an equal volume of saline (0.85% of NaCl). Mice were sacrificed at day five, and both the serum and spleen cells were collected. The sera were subsequently used to measure the concentration of IgG, IgM and IgA. The spleen cells were plated onto a 100 mm diameter culture plate and incubated at 37° C. for three hours. The non-adherent cells containing T-lymphocytes, B-lymphocytes and NK cells were collected and properly diluted as described in each assay.
(§1) The mouse to be sacrificed was cervical dislocated and sterilized with 70% ethanol. The cardiac punctuation was performed first to withdraw the blood. After the haemagglutination, the blood sample was subjected to centrifugation and the serum was collect. For isolation of spleen cells, the peritoneum was opened to remove the spleen. The fresh spleen was transferred to a culture plate containing 10 ml of RPMI-1640 culture medium. The spleen was then ground over a fine mesh to release the spleen cells. The spleen cells suspending in the medium were then removed and transferred to a 50-ml conical centrifuge tube. The tube was subjected to centrifugation at 1300 rpm for 10 min. The supernatant was discarded and the pellet was re-suspended in 1 ml of cold RBC lysing buffer containing EDTA-NH4Cl. The cells were incubated at room temperature for 10 min, followed by washing the cells three times with culture medium by centrifugation. The spleen cells were plated onto a 100 mm diameter culture plate and incubated at 37° C. for three hours. The non-adherent cells containing T-lymphocytes, B-lymphocytes and NK cells were collected and properly diluted as described in each assay.
An ELISA was performed in our study to measure the immunoglobulin concentration. Briefly, the spleen cells (5×10^5 cells/ml) were cultured in a medium containing RPMI 1640 supplemented with 10% fetal bovine serum (FBS), 2 mM L-glutamine, antibiotics and 5 μg/ml lipopolysaccharide (LPS; 1 μg/10^5 cells) for 5 days. LPS is a polyclonal activator of B lymphocyte. Culture spleen cell supernatants were collected at day 3, 4 and 5. IgA, IgG and IgM concentrations were measured using a sandwich ELISA technique.
The procedure for IgM assay was similar to that for IgG assay, except that the samples were 1/10^4 diluted and standard IgM ranged from 1 μg/ml to 0.0156 μg/ml were added (100 μl/well). The secondary antibody for the assay was HRP-conjugated goat anti-mouse IgM (1:1,000 diluted; heavy chain-specific; Zymed Laboratory, CA).

The next assay has as its system IL-10. Description: IL-10 secretion by Con A-stimulated spleen cells (ELISA) after oral administration. The assay is classed as in vivo, mice. On the procedure:
For the drug treatment, the animals were divided into four groups and oral administration with 1 ml of PCM, ranging from 10, 40 to 80 mg/kg/day, for four days. […] The control group was the mice feeding with an equal volume of saline (0.85% of NaCl). Mice were sacrificed at day five, and both the serum and spleen cells were collected. The sera were subsequently used to measure the concentration of IgG, IgM and IgA. The spleen cells were plated onto a 100 mm diameter culture plate and incubated at 37° C. for three hours. The non-adherent cells containing T-lymphocytes, B-lymphocytes and NK cells were collected and properly diluted as described in each assay.
as §1
For the quantitative analysis of IFN-γ and IL-10, the spleen cells (1×10^6 cells/ml) were cultured in a medium containing RPMI 1640 supplemented with 10% fetal bovine serum (FBS), 2 mM L-glutamine, antibiotics and 1 μg/ml concanavalin A (Con A) for 3 days. Con A is one of the polyclonal activators for T lymphocyte. Culture spleen cell supernatants were collected. The IFNγ and IL-10 concentrations were measured using a cytokine ELISA set (Cyto Set ELISA kit) purchased from R&D Systems (MN, USA).
Cyto Set ELISA was performed as follows: A 96-well microtiter plate (Nunc-Immuno Plate, MaxiSorp, Nunc, Denmark) was precoated with capture antibodies at 4° C. overnight. The capture antibody was a rat monoclonal antibody to mouse IL-10. The samples to be tested and standard IL-10 ranged from 500 pg/ml to 15.6 pg/ml were added (100 μl/well). The plate was then incubated at 37° C. for 20 min. At the end of incubation, the plate was washed five times, followed by adding the biotinylated goat anti IL-10 polyclonal antibody. The color was developed by incubating the plate with a HRP-conjugated streptoavidin (Zymed, CA, USA), followed by a substrate solution containing hydrogen peroxide and tetramethylbenzidine (TMB). The reaction continued for 30 min at room temperature, and was stopped by adding 100 μl of 2N of sulfuric acid. The absorbence at 450 nm in each well was read using an ELISA reader (EL311, BioTek, Winooski, Vt.), and the data was analyzed using log-logit model.
TH1-type cytokines, such as interleukin-2 (IL-2), interferon-γ (IFN-γ) induces the cellular immune response. Whereas, TH2-type cytokines, such as interleukin-4 (IL-4), interleukin-5 (IL-5), interleukin-6 (IL-6), stimulates the B lymphocyte-mediated humoral immune response. […] Spleen cells isolated from the mice treated with PCM and its purified components, such as PCM-K1, -K2, -K3 and K4, were cultured for five days in the presence of ConA. The amount of interferon-γ (IFNγ; TH1-type cytokine) and interleukin-10 (IL-10; TH2-type cytokine) secreted by the spleen T lymphocytes was measured (Table 7.1 & Table 7.2). […]

Setting [1] is: oral 10 mg/kg/day for four days.
The mark [2] stands for this setting: oral 20 mg/kg/day for four days.

Turning to `C=C(CCC(C(=O)O)C1C(O)CC2(C)C3=CCC4C(C)(CCC(O)C4(C)C)C3=CCC12C)C(C)C` (centres unmarked) [K4], the figures for the “IgM secretion by spleen cell, incubation day 3” value with IgM (oral 5 mg/kg/day for four days), in the assay with IgM (setting [1]) and in the assay on IgM (setting [2]) were 463.65 ± 76.41, 514.45 ± 70.30 and 747.6 ± 128.42, respectively. In addition, the “IgM secretion by spleen cell, incubation day 4” value is on record as 688.17 ± 85.78 in the assay with IgM (oral 5 mg/kg/day for four days), 733.58 ± 95.70 in the assay on IgM (setting [1]) and 746.50 ± 157.76 in the assay with IgM (setting [2]). For the same molecule, the “IgM secretion by spleen cell, incubation day 5” value in the assay with IgM (oral 5 mg/kg/day for four days) came to 649.89 ± 70.09; in the assay on IgM (setting [1]), 807.32 ± 104.21; with IgM (setting [2]), 857.49 ± 92.19. Also, the “Dose with significant increase in IgM secretion by spleen cells” value in the assay on IgM was at least 5 mg/kg/day. Further, the results for the “IL-10 secretion by spleen cell” value in the assay on IL-10 (oral 5 mg/kg/day for four days), in the assay with IL-10 (setting [1]) and in the assay on IL-10 (setting [2]) were 128.91 ± 45.46 pg/mL, 197.39 ± 68.73 pg/mL and 155.91 ± 26.16 pg/mL, respectively.
Turning to `C=C(CC[C@@H](C(=O)O)[C@H]1[C@H](O)C[C@@]2(C)C3=CC[C@H]4C(C)(C)C(=O)CC[C@]4(C)C3=CC[C@]12C)C(C)C` [K3], the “IgM secretion by spleen cell, incubation day 3” value in the assay on IgM (oral 5 mg/kg/day for four days) came out at 222.42 ± 42.83; with IgM (setting [1]) it was 287.66 ± 44.44; with IgM (setting [2]) it was 372.14 ± 69.48. Also, the “IgM secretion by spleen cell, incubation day 4” value in the assay with IgM (oral 5 mg/kg/day for four days) is given as 214.45 ± 28.51; in the assay on IgM (setting [1]) it was 294.30 ± 30.68; in the assay with IgM (setting [2]), 519.53 ± 52.63. Further, the results for the “IgM secretion by spleen cell, incubation day 5” value in the assay with IgM (oral 5 mg/kg/day for four days), in the assay on IgM (setting [1]) and in the assay on IgM (setting [2]) were 277.52 ± 101.63, 309.51 ± 30.88 and 606.44 ± 88.10, respectively. In addition, the “Dose with significant increase in IgM secretion by spleen cells” value in the assay on IgM was found to be 10 mg/kg/day. The “IL-10 secretion by spleen cell” value in the assay on IL-10 (oral 5 mg/kg/day for four days) amounted to 262.09 ± 108.41 pg/mL; in the assay on IL-10 (setting [1]), 86.48 ± 33.26 pg/mL; with IL-10 (setting [2]), 98.74 ± 27.05 pg/mL.
